Measured values reported in PubChem BioAssay (NCI).
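Five compound concentrations were applied to cells in 96-well plates for 48 hours; endpoints were derived by simple linear interpolation of the resulting dose-response curve. TGI: concentration producing complete growth inhibition.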

What was measured:
Assay in all cases: NCI-60 cell line screen, 48 h
HCT-116 colon = system: HCT-116 colon
MDA-MB-231 breast = system: MDA-MB-231 breast
SR leukemia = system: SR leukemia
HOP-92 NSCLC = system: HOP-92 NSCLC
MALME-3M melanoma = system: MALME-3M melanoma
K-562 leukemia = system: K-562 leukemia
NCI-H522 lung = system: NCI-H522 lung
SK-MEL-28 melanoma = system: SK-MEL-28 melanoma
SN12C renal = system: SN12C renal
EKVX NSCLC = system: EKVX NSCLC
LOX IMVI melanoma = system: LOX IMVI melanoma
HT29 colon = system: HT29 colon
U251 CNS = system: U251 CNS
MCF7 breast = system: MCF7 breast
SNB-75 CNS = system: SNB-75 CNS
CAKI-1 renal = system: CAKI-1 renal
DU-145 prostate = system: DU-145 prostate
NCI-H226 lung = system: NCI-H226 lung
UACC-257 melanoma = system: UACC-257 melanoma
MOLT-4 leukemia = system: MOLT-4 leukemia
COLO 205 colon = system: COLO 205 colon
RPMI-8226 leukemia = system: RPMI-8226 leukemia
RXF 393 renal = system: RXF 393 renal
HS 578T breast = system: HS 578T breast
NCI-H23 lung = system: NCI-H23 lung
BT-549 breast = system: BT-549 breast
SF-268 CNS = system: SF-268 CNS
SK-MEL-2 melanoma = system: SK-MEL-2 melanoma
ACHN renal = system: ACHN renal
NCI-H460 lung = system: NCI-H460 lung
UACC-62 melanoma = system: UACC-62 melanoma
TK-10 renal = system: TK-10 renal
A549 NSCLC = system: A549 NSCLC
OVCAR-3 ovarian = system: OVCAR-3 ovarian
CCRF-CEM leukemia = system: CCRF-CEM leukemia
SK-MEL-5 melanoma = system: SK-MEL-5 melanoma
MDA-MB-435 = system: MDA-MB-435
SF-295 CNS = system: SF-295 CNS
HCT-15 colon = system: HCT-15 colon
OVCAR-8 ovarian = system: OVCAR-8 ovarian
OVCAR-5 ovarian = system: OVCAR-5 ovarian
A498 renal = system: A498 renal
SNB-19 CNS = system: SNB-19 CNS
M14 melanoma = system: M14 melanoma
UO-31 renal = system: UO-31 renal
786-0 renal = system: 786-0 renal
NCI/ADR-RES ovarian = system: NCI/ADR-RES ovarian
T-47D breast = system: T-47D breast
PC-3 prostate = system: PC-3 prostate
MDA-N = system: MDA-N
OVCAR-4 ovarian = system: OVCAR-4 ovarian
KM12 colon = system: KM12 colon
SF-539 CNS = system: SF-539 CNS
HOP-62 NSCLC = system: HOP-62 NSCLC
SW-620 colon = system: SW-620 colon
SK-OV-3 ovarian = system: SK-OV-3 ovarian
HL-60(TB) leukemia = system: HL-60(TB) leukemia
IGROV1 ovarian = system: IGROV1 ovarian
HCC-2998 colon = system: HCC-2998 colon

Cc1cc(OCc2nc(N)nc(N)c2-c2ccc(Cl)c(Cl)c2)ccc1[N+](=O)[O-]
TGI (HCT-116 colon): 16 µM | TGI (MDA-MB-231 breast): 7.24 µM | TGI (SR leukemia): 0.106 µM | TGI (HOP-92 NSCLC): > 60 µM | TGI (MALME-3M melanoma): 29.5 µM | TGI (K-562 leukemia): > 100 µM | TGI (NCI-H522 lung): 10.6 µM | TGI (SK-MEL-28 melanoma): 40.8 µM | TGI (SN12C renal): 25.9 µM | TGI (EKVX NSCLC): 45 µM | TGI (LOX IMVI melanoma): 37.8 µM | TGI (HT29 colon): 18.1 µM | TGI (U251 CNS): 12.3 µM | TGI (MCF7 breast): 8.15 µM | TGI (SNB-75 CNS): 13.7 µM | TGI (CAKI-1 renal): 31.8 µM | TGI (DU-145 prostate): > 65 µM | TGI (NCI-H226 lung): 28.6 µM | TGI (UACC-257 melanoma): 3.28 µM | TGI (MOLT-4 leukemia): > 27.5 µM | TGI (COLO 205 colon): 18.9 µM | TGI (RPMI-8226 leukemia): > 78.7 µM | TGI (RXF 393 renal): 21.6 µM | TGI (HS 578T breast): > 88.2 µM | TGI (NCI-H23 lung): 4.79 µM | TGI (BT-549 breast): 12.2 µM | TGI (SF-268 CNS): 36.5 µM | TGI (SK-MEL-2 melanoma): 15.1 µM | TGI (ACHN renal): 2.37 µM | TGI (NCI-H460 lung): 4.88 µM | TGI (UACC-62 melanoma): 1.88 µM | TGI (TK-10 renal): 13.4 µM | TGI (A549 NSCLC): > 100 µM | TGI (OVCAR-3 ovarian): 3.29 µM | TGI (CCRF-CEM leukemia): 2.27 µM | TGI (SK-MEL-5 melanoma): 15 µM | TGI (MDA-MB-435): 21.5 µM | TGI (SF-295 CNS): 4.72 µM | TGI (HCT-15 colon): 27.4 µM | TGI (OVCAR-8 ovarian): 34 µM | TGI (OVCAR-5 ovarian): 47 µM | TGI (A498 renal): 1.3 µM | TGI (SNB-19 CNS): > 55.1 µM | TGI (M14 melanoma): 10.7 µM | TGI (UO-31 renal): 30.5 µM | TGI (786-0 renal): 22.3 µM | TGI (NCI/ADR-RES ovarian): 18.6 µM | TGI (T-47D breast): > 51.5 µM | TGI (PC-3 prostate): 11.7 µM | TGI (MDA-N): 22.9 µM | TGI (OVCAR-4 ovarian): 39.1 µM | TGI (KM12 colon): 33.8 µM | TGI (SF-539 CNS): 22.5 µM | TGI (HOP-62 NSCLC): 12 µM | TGI (SW-620 colon): > 63.6 µM | TGI (SK-OV-3 ovarian): > 63.3 µM | TGI (HL-60(TB) leukemia): 3.56 µM | TGI (IGROV1 ovarian): > 41.1 µM

COC(=O)C1OC(O[C@H]2CC[C@]3(C)[C@H]4CC=C5[C@@H]6CC(C)(C)CC[C@]6(C(=O)OC)CC[C@@]5(C)[C@]4(C)CC[C@H]3C2(C)C)C(O)C(O)C1O (stereo not given in full)
TGI (HCT-116 colon): 26.2 µM | TGI (MDA-MB-231 breast): 19.2 µM | TGI (SR leukemia): 14.4 µM | TGI (HOP-92 NSCLC): 34.7 µM | TGI (MALME-3M melanoma): 38.2 µM | TGI (K-562 leukemia): 46.3 µM | TGI (NCI-H522 lung): 35.2 µM | TGI (SK-MEL-28 melanoma): 32.7 µM | TGI (SN12C renal): 26.8 µM | TGI (EKVX NSCLC): 29 µM | TGI (LOX IMVI melanoma): 20 µM | TGI (HT29 colon): 22.9 µM | TGI (U251 CNS): 25.1 µM | TGI (MCF7 breast): 29.2 µM | TGI (SNB-75 CNS): 31.1 µM | TGI (CAKI-1 renal): 21.8 µM | TGI (DU-145 prostate): 27.9 µM | TGI (NCI-H226 lung): 37 µM | TGI (UACC-257 melanoma): 35.4 µM | TGI (MOLT-4 leukemia): > 100 µM | TGI (COLO 205 colon): 29.9 µM | TGI (RPMI-8226 leukemia): 51.7 µM | TGI (RXF 393 renal): 18.2 µM | TGI (HS 578T breast): 46.8 µM | TGI (NCI-H23 lung): 32.4 µM | TGI (BT-549 breast): 32.1 µM | TGI (SF-268 CNS): 39.3 µM | TGI (SK-MEL-2 melanoma): 31.9 µM | TGI (ACHN renal): 24.2 µM | TGI (NCI-H460 lung): 25.7 µM | TGI (UACC-62 melanoma): 31 µM | TGI (A549 NSCLC): 22.5 µM | TGI (OVCAR-3 ovarian): 15.5 µM | TGI (CCRF-CEM leukemia): 23.2 µM | TGI (SK-MEL-5 melanoma): 32.2 µM | TGI (MDA-MB-435): 30 µM | TGI (SF-295 CNS): 28.7 µM | TGI (HCT-15 colon): 27.1 µM | TGI (OVCAR-8 ovarian): 31.2 µM | TGI (OVCAR-5 ovarian): 27.7 µM | TGI (A498 renal): 34.3 µM | TGI (SNB-19 CNS): 31.1 µM | TGI (M14 melanoma): 30 µM | TGI (UO-31 renal): 33.4 µM | TGI (786-0 renal): 19.2 µM | TGI (HCC-2998 colon): 20.3 µM | TGI (NCI/ADR-RES ovarian): 36.1 µM | TGI (T-47D breast): 40.9 µM | TGI (PC-3 prostate): 28.7 µM | TGI (MDA-N): 30.9 µM | TGI (OVCAR-4 ovarian): 30.6 µM | TGI (KM12 colon): 20.7 µM | TGI (HOP-62 NSCLC): 31.9 µM | TGI (SW-620 colon): 34.6 µM | TGI (SK-OV-3 ovarian): 34.8 µM | TGI (HL-60(TB) leukemia): 36.7 µM | TGI (IGROV1 ovarian): 37.4 µM
